Reference: ChEMBL document CHEMBL4002566, “S-substituted 3,5-dinitrophenyl 1,3,4-oxadiazole-2-thiols and tetrazole-5-thiols as highly efficient antitubercular agents” (Eur J Med Chem, 2017)
Values after ≈ are worked out from the molar mass of the structure shown.

What was measured:
Type in all cases: functional
Candida albicans = experiment: Antifungal activity against Candida albicans ATCC 44859 after 24 hrs by broth microdilution method; conditions: ATCC 44859, 24 h
Candida tropicalis = experiment: Antifungal activity against Candida tropicalis 156 after 24 hrs by broth microdilution method; conditions: Candida tropicalis, 156, 24 h
Pichia kudriavzevii = experiment: Antifungal activity against Candida krusei E28 after 24 hrs by broth microdilution method; conditions: E28, 24 h
Nakaseomyces glabratus = experiment: Antifungal activity against Candida glabrata 20/I after 24 hrs by broth microdilution method
Trichosporon asahii = experiment: Antifungal activity against Trichosporon asahii 1188 after 24 hrs by broth microdilution method; conditions: Trichosporon asahii, 1188, 24 h
Aspergillus fumigatus = experiment: Antifungal activity against Aspergillus fumigatus 231 after 24 hrs by broth microdilution method; conditions: Aspergillus fumigatus, 231, 24 h
Lichtheimia corymbifera = experiment: Antifungal activity against Absidia corymbifera 272 after 24 hrs by broth microdilution method; conditions: Lichtheimia corymbifera, 272, 24 h
[1] = system: Trichophyton mentagrophytes; experiment: Antifungal activity against Trichophyton mentagrophytes 445 after 72 hrs by broth microdilution method; conditions: Trichophyton mentagrophytes, 445, 72 h

`C[C@@H]1[C@H](O)[C@@H](C)/C=C/C=C/C=C/C=C/C=C/C=C/C=C/[C@H](O[C@@H]2O[C@H](C)[C@@H](O)[C@H](N)[C@@H]2O)C[C@@H]2O[C@](O)(C[C@@H](O)C[C@@H](O)[C@H](O)CC[C@@H](O)C[C@@H](O)CC(=O)O[C@H]1C)C[C@H](O)[C@H]2C(=O)O` [AMPHOTERICIN B] showed an MIC (Candida albicans) of 0.54 µM (≈ 0.499 µg/mL), an MIC (Candida tropicalis) of 0.54 µM (≈ 0.499 µg/mL) and an MIC (Pichia kudriavzevii) of 1 µM (≈ 0.924 µg/mL). For the same compound, the MIC (Nakaseomyces glabratus) was 0.54 µM (≈ 0.499 µg/mL), the MIC (Trichosporon asahii) was 0.27 µM (≈ 0.25 µg/mL) and the MIC (Aspergillus fumigatus) was 0.54 µM (≈ 0.499 µg/mL). The MIC (Lichtheimia corymbifera) was 1 µM (≈ 0.924 µg/mL) and the MIC [1] was 0.54 µM (≈ 0.499 µg/mL).

`OC(Cn1cncn1)(Cn1cncn1)c1ccc(F)cc1F` [FLUCONAZOLE] gave an MIC (Candida albicans) of 0.82 µM (≈ 0.251 µg/mL), an MIC (Candida tropicalis) of 1.6 µM (≈ 0.49 µg/mL) and an MIC (Pichia kudriavzevii) of 105 µM (≈ 32.2 µg/mL). For the same compound, the MIC (Trichosporon asahii) was 210 µM (≈ 64.3 µg/mL), the MIC (Aspergillus fumigatus) was greater than 500 µM and the MIC (Lichtheimia corymbifera) was greater than 500 µM. The MIC [1] was 105 µM (≈ 32.2 µg/mL).
